{"source": "patent USRE42748E1", "about": "“Oral DTPA for radionuclide chelation” (priority 2006, dated 2011)", "key": {"[1]": {"test": "Bioavailability study after liquid dose of radiolabeled DTPA (14C) in male Sprague-Dawley rats (SRI Study B230-06)", "type": "in vivo", "details": "for AUC0→last Mean ± SD / AUC0→last: 16.38 mg-equiv DTPA/Kg", "method": "The objective of this study was to determine the oral bioavailability of Ca-DTPA using radioactive ^14C-DTPA tracer for detection in male Sprague Dawley rats after oral administration in several different formulations. After oral gavage of Ca-DTPA or DTPA (free acid) in sterile water, the oral bioavailability of DTPA is estimated to be about 7% in these two treatment groups. […] In Group 7, which also was administered DTPA in 20% Labrasol (+Quinidine pretreatment), the mean bioavailability was 10%, but this group had greater interindividual variability than seen in the other treatment groups."}, "[2]": {"system": "harvested rat small intestinal segments: Ileum", "test": "Ussing chamber mucosal to serosal transport across rat ileum", "type": "in vitro ADME", "details": "5 mg/ml of DTPA in HEPES Buffer", "method": "(§1) The primary objective of these in vitro studies was to determine a formulation containing permeation enhancers/other additives that achieved maximum transport of DTPA from mucosal to serosal side of the intestine. The mucosal to serosal absorption of DTPA (Zinc/Calcium) was measured in vitro across harvested rat intestinal segments and colon, in an EasyMount Ussing System (Physiological Instruments Inc., CA, Item #EM-CSYS-8). The Ussing chamber consists of two diffusion chambers, a heating block for temperature control, needle valves for gas flow adjustment and gas lift stirring, and Ag/AgCl voltage and current electrodes for measuring transepithelial voltage and for passing current. Representative sections of the harvested rat small intestinal segments (jejunum, duodenum, and ileum) and the rat colon were mounted on sliders placed between the chambers, and DTPA (Zinc/Calcium) transport across the sections was monitored. Aliquots of sample solution were removed from the ‘serosal’ side at 30 min intervals and analyzed by high performance liquid chromatography (HPLC). The change in mucosal to serosal transport of DTPA (Zinc/Calcium) in the presence of different permeation enhancers was determined.\n(§2) Zn-DTPA and Ca-DTPA was dissolved in HEPES buffer (VWR, Brisbane, Calif.), with or without additives, at the predetermined drug concentrations. […]"}, "[3]": {"system": "harvested rat small intestinal segments: Jejunum", "test": "Ussing chamber mucosal to serosal transport across rat jejunum", "type": "in vitro ADME", "method": "as §1\nZn-DTPA and Ca-DTPA was dissolved in HEPES buffer (VWR, Brisbane, Calif.), with or without additives, at the predetermined drug concentrations. HEPES buffer was used as the base mucosal and serosal fluid. Before initiating the experiment, 5 ml of HEPES buffer was added to each of the two chambers (mucosal and serosal) and was allowed to equilibrate for 20 min. Next, the mucosal buffer was replaced by the appropriate formulation to be tested and the experiment was initiated. Aliquots (0.5 ml) were collected from the serosal side and were replaced with an equivalent amount of fresh HEPES buffer (maintained at physiological temperature). The aliquotted samples from the serosal side were analyzed by HPLC.\nOwing to the expected variation in the in vitro conditions and harvested rat intestinal segments, five replicates were used per experimental condition. In order to compare data obtained from the different experiments, the apparent permeability coefficients (Papp) were calculated according to:\n[formula] Where, dQ/dt is the linear appearance rate of mass in receiver compartment, C0 is the initial solute concentration in donor compartment, and A is the surface area. The higher the Papp value, the better the permeation property. The similarity of the Papp values indicates similar behavior for the two DTPA compounds.\nWe then evaluated transport of Zn-DTPA and Ca-DTPA through jejunum segments with and without Labrasol.\nWe then tested the transport of 100 mg/ml DTPA in HEPES buffer with and without added enhancers across jejunum segments; results are in Table 3."}, "[4]": {"system": "harvested rat small intestinal segments: Duodenum", "test": "Ussing chamber mucosal to serosal transport across rat duodenum", "type": "in vitro ADME", "details": "5 mg/ml of DTPA in HEPES Buffer", "method": "as §1, §2"}, "rat colon": {"system": "rat colon", "test": "Ussing chamber mucosal to serosal transport across rat colon", "type": "in vitro ADME", "details": "5 mg/ml of DTPA in HEPES Buffer", "method": "as §1, §2"}}, "note": "Several values for one entry are separate records, joined by “and”; a condition that tells them apart may be missing. Equal entries are not always repeated.", "data": [{"compound": "O=C([O-])CN(CCN(CC(=O)[O-])CC(=O)[O-])CCN(CC(=O)[O-])CC(=O)[O-].[Ca+2].[Na+].[Na+].[Na+]", "note": "[Ca-DTPA, calcium diethylenetriaminepentaacetate]", "values": [{"measurement": "% Bioavailability", "setting": "[1]; Group 1 IV, saline (reference)", "value": 100, "unit": "%"}, {"measurement": "% Bioavailability Mean ± SD", "setting": "[1]; Group 1 IV, saline (reference)", "value": 100.00, "unit": "%"}, {"measurement": "AUC0→last Mean ± SD", "setting": "[1]; Group 1 IV, saline, last time point 3 hr", "value": "17.73 ± 0.63 Hr * ( ng/ml)"}, {"measurement": "AUC0→last", "setting": "[1]; Group 1 IV, saline, last time point 3 hr, individual rats", "value": "17.3934 Hr * ( ng/ml) and 17.34 Hr * ( ng/ml) and 18.4585 Hr * ( ng/ml)"}, {"measurement": "AUC0→last Mean ± SD", "setting": "[1]; Group 2 Oral, water, 6 hr", "value": "1.22 ± 0.05 Hr * ( ng/ml)"}, {"measurement": "AUC0→last", "setting": "[1]; Group 2 Oral, water, last time point 6 hr, individual rats", "value": "1.2411 Hr * ( ng/ml) and 1.1632 Hr * ( ng/ml) and 1.2516 Hr * ( ng/ml)"}, {"measurement": "% Bioavailability", "setting": "[1]; Group 2 Oral, water, individual rats", "value": "7.00% and 6.56% and 7.06%"}, {"measurement": "% Bioavailability Mean ± SD", "setting": "[1]; Group 4 Oral, 20% Labrasol", "value": "12.14 ± 2.29", "unit": "%"}, {"measurement": "AUC0→last Mean ± SD", "setting": "[1]; Group 4 Oral, 20% Labrasol, 6 hr", "value": "2.15 ± 0.41 Hr * ( ng/ml)"}, {"measurement": "AUC0→last", "setting": "[1]; Group 4 Oral, 20% Labrasol, last time point 6 hr, individual rats", "value": "1.6901 Hr * ( ng/ml) and 2.3145 Hr * ( ng/ml) and 2.4507 Hr * ( ng/ml)"}, {"measurement": "% Bioavailability", "setting": "[1]; Group 4 Oral, 20% Labrasol, individual rats", "value": "9.53% and 13.05% and 13.82%"}, {"measurement": "% Bioavailability Mean ± SD", "setting": "[1]; Group 5 Oral, 5% Labrasol", "value": "7.12 ± 1.37", "unit": "%"}, {"measurement": "AUC0→last Mean ± SD", "setting": "[1]; Group 5 Oral, 5% Labrasol, 6 hr", "value": "1.26 ± 0.24 Hr * ( ng/ml)"}, {"measurement": "AUC0→last", "setting": "[1]; Group 5 Oral, 5% Labrasol, last time point 6 hr, individual rats", "value": "1.4714 Hr * ( ng/ml) and 0.9971 Hr * ( ng/ml) and 1.3181 Hr * ( ng/ml)"}, {"measurement": "% Bioavailability", "setting": "[1]; Group 5 Oral, 5% Labrasol, individual rats", "value": "8.30% and 5.62% and 7.43%"}, {"measurement": "% Bioavailability Mean ± SD", "setting": "[1]; Group 6 Oral, 5% TPGS + 5% Labrasol", "value": "7.909 ± 0.84", "unit": "%"}, {"measurement": "AUC0→last Mean ± SD", "setting": "[1]; Group 6 Oral, 5% TPGS + 5% Labrasol, 6 hr", "value": "1.40 ± 0.15 Hr * ( ng/ml)"}, {"measurement": "AUC0→last", "setting": "[1]; Group 6 Oral, 5% TPGS + 5% Labrasol, last time point 6 hr, individual rats", "value": "1.3506 Hr * ( ng/ml) and 1.284 Hr * ( ng/ml) and 1.5688 Hr * ( ng/ml)"}, {"measurement": "% Bioavailability", "setting": "[1]; Group 6 Oral, 5% TPGS + 5% Labrasol, individual rats", "value": "7.62% and 7.24% and 8.85%"}, {"measurement": "AUC0→last Mean ± SD", "setting": "[1]; Group 7 Oral, 0.15 mM Quinidine 20 min before, then 20% Labrasol, 6 hr", "value": "1.81 ± 1.39 Hr * ( ng/ml)"}, {"measurement": "AUC0→last", "setting": "[1]; Group 7 Oral, 0.15 mM Quinidine 20 min before, then 20% Labrasol, last time point 6 hr, individual rats", "value": "3.3876 Hr * ( ng/ml) and 1.2912 Hr * ( ng/ml) and 0.7655 Hr * ( ng/ml)"}, {"measurement": "% Bioavailability Mean ± SD", "setting": "[1]; Group 7 Oral, 0.15 mM Quinidine pretreatment then 20% Labrasol", "value": "10.23 ± 7.82", "unit": "%"}, {"measurement": "% Bioavailability", "setting": "[1]; Group 7 Oral, 0.15 mM Quinidine pretreatment then 20% Labrasol, individual rats", "value": "19.10% and 7.28% and 4.32%"}, {"measurement": "Papp", "setting": "[2]", "value": 2.8, "unit": "×10⁻⁶ cm/s"}, {"measurement": "Papp", "setting": "[3]; Jejunum, 5 mg/ml of drug in HEPES Buffer", "value": 3.84, "unit": "×10⁻⁶ cm/s"}, {"measurement": "Papp", "setting": "[3]; jejunum, 5 mg/ml of drug in HEPES Buffer containing 10% Labrasol", "value": 2.84, "unit": "×10⁻⁶ cm/s"}, {"measurement": "Papp", "setting": "[3]; jejunum, 5 mg/ml of drug in HEPES Buffer containing 20% Labrasol", "value": 3.48, "unit": "×10⁻⁶ cm/s"}, {"measurement": "Papp", "setting": "[3]; jejunum, 5 mg/ml of drug in HEPES Buffer containing 40% Labrasol", "value": 13.51, "unit": "×10⁻⁶ cm/s"}, {"measurement": "Papp", "setting": "[3]; jejunum, 100 mg/ml DTPA in HEPES buffer, 5% Gelucire 44/14 + 5% Labrasol", "value": 7.27, "unit": "×10⁻⁶ cm/s"}, {"measurement": "Papp", "setting": "[3]; jejunum, 100 mg/ml DTPA in HEPES buffer, 5% TPGS + 5% Labrasol", "value": 14.04, "unit": "×10⁻⁶ cm/s"}, {"measurement": "Papp", "setting": "[3]; jejunum, 100 mg/ml DTPA in HEPES buffer, 5% TPGS + 20% Labrasol", "value": 7.85, "unit": "×10⁻⁶ cm/s"}, {"measurement": "Papp", "setting": "[3]; jejunum, 100 mg/ml DTPA in HEPES buffer, 5% Tween 80 + 5% Capmul PG-8", "value": 3.61, "unit": "×10⁻⁶ cm/s"}, {"measurement": "Papp", "setting": "[3]; jejunum, 100 mg/ml DTPA in HEPES buffer, 5% Tween 80 + 5% Labrasol", "value": 11.61, "unit": "×10⁻⁶ cm/s"}, {"measurement": "Papp", "setting": "[3]; jejunum, 100 mg/ml DTPA in HEPES buffer, 5% Tween 80 and 5% Caproyl PGMC", "value": 2.75, "unit": "×10⁻⁶ cm/s"}, {"measurement": "Papp", "setting": "[3]; jejunum, 100 mg/ml DTPA in HEPES buffer, 5% Tween 80 and 5% Labrafil", "value": 2.83, "unit": "×10⁻⁶ cm/s"}, {"measurement": "Papp", "setting": "[3]; jejunum, 100 mg/ml DTPA in HEPES buffer, 10% Gelucire 44/14", "value": 6.57, "unit": "×10⁻⁶ cm/s"}, {"measurement": "Papp", "setting": "[3]; jejunum, 100 mg/ml DTPA in HEPES buffer, 10% Tween 80", "value": 5.43, "unit": "×10⁻⁶ cm/s"}, {"measurement": "Papp", "setting": "[3]; jejunum, 100 mg/ml DTPA in HEPES buffer, 20% Bile Salt", "value": 12.65, "unit": "×10⁻⁶ cm/s"}, {"measurement": "Papp", "setting": "[3]; jejunum, 100 mg/ml of drug in HEPES Buffer containing 10% Labrasol", "value": 6.29, "unit": "×10⁻⁶ cm/s"}, {"measurement": "Papp", "setting": "[3]; jejunum, 100 mg/ml of drug in HEPES Buffer containing 20% Labrasol", "value": 11.76, "unit": "×10⁻⁶ cm/s"}, {"measurement": "Papp", "setting": "[3]; jejunum, 100 mg/ml of drug in HEPES Buffer only", "value": 4.63, "unit": "×10⁻⁶ cm/s"}, {"measurement": "Papp", "setting": "[4]", "value": 1.71, "unit": "×10⁻⁶ cm/s"}, {"measurement": "Papp", "setting": "rat colon", "value": 3.22, "unit": "×10⁻⁶ cm/s"}]}]}
